Measurements published in patent US7906332B2, “Method of preparing basement membrane, method of constructing basement membrane specimen, reconstituted artificial tissue using the basement membrane specimen and process for producing the same” (Japan Science And Technology Agency, priority 2001, dated 2011).

Key:
[1] = tested on: alveolar epithelial cells; test: Construction of a basement membrane according to the MMP inhibition method; format: cell-based; details: 2 weeks on fib, 1% fetal bovine serum, no basement membrane components added
Experimental: Alveolar epithelial cells were cultured on collagen fiber (fib) with the only addition of 1% fetal bovine serum and synthetic inhibitor of matrix metalloproteinase (MMP) and without the addition of basement membrane components for 2 weeks. As MMP inhibitor, GM6001 (Calbiochem) and MMP-2/MMP-9 inhibitor I (Calbiochem) were used. 1.1 μM of GM6001 and 310 μM of MMP-2/MMP-9 inhibitor I (2/9 inhibitor) were added respectively.

[2] = tested on: type II alveolar epithelial cells; test: Basement membrane formation by alveolar epithelial cells on collagen fiber (fib) with Matrigel or TGF-β (T2-fib-MG, T2-fib-TGFβ); format: cell-based, rat; details: fibrous collagen substratum, TGF-β in upper and lower wells (T2-fib-TGFβ)
Excerpt: The present inventors made a study on a process to form a basement membrane structure just beneath the basal surface of epithelial cells on a fibrous collagen matrix by the coculture with fibroblasts-embedded collagen gel, and by the culture in the presence of TGF-β or Matrigel. […] However, it was also confirmed that type II alveolar epithelial cells were unable to constitute a basement membrane without the supply of, for example, a fibroblast, exogenous basement membrane components from Matrigel or a growth factor TGF-β, since the endogenous basement membrane components from type II alveolar epithelial cells are not enough for the cells to assemble a basement membrane structure effectively. […]

CNC(=O)[C@H](Cc1c[nH]c2ccccc12)NC(=O)[C@@H](CC(=O)NO)CC(C)C [GM6001]
basement membrane structure formation beneath the cells ([1]; 1.1 μM): complete basement membrane structure (▴) was formed

O=C(O)[C@@H](Cc1ccccc1)NS(=O)(=O)c1ccc(-c2ccccc2)cc1 [MMP-2/MMP-9 inhibitor I]
basement membrane structure formation beneath the cells ([1]; 310 μM): complete basement membrane structure (▴) was formed

TGF-β
basement membrane formation by type II alveolar epithelial cells [2]: a basement membrane was formed
